Reference: US7829587B2, “Substituted 2-aminotetralin derivatives as selective alpha 2B agonist” (Allergan, Inc., priority 2008, dated 2010)

How the values were obtained:
Assay type in all cases: cell-based
[1] = biological target: T1, human α2A receptor (Homo sapiens, UniProt P08913); experiment: FLIPR Ca+2 influx assay, α2A; conditions: for EC50: HEK 293 cells stably expressing human α2A receptor and chimeric G protein Gqi5; for Relative efficacy FLIPR α2A: relative efficacy compared to standard full agonist norepinephrine, HEK 293, human α2A/Gqi5
T1 construct: expressed in transfected cells; host or cells: HEK 293
T1 sequence (P08913 1-465): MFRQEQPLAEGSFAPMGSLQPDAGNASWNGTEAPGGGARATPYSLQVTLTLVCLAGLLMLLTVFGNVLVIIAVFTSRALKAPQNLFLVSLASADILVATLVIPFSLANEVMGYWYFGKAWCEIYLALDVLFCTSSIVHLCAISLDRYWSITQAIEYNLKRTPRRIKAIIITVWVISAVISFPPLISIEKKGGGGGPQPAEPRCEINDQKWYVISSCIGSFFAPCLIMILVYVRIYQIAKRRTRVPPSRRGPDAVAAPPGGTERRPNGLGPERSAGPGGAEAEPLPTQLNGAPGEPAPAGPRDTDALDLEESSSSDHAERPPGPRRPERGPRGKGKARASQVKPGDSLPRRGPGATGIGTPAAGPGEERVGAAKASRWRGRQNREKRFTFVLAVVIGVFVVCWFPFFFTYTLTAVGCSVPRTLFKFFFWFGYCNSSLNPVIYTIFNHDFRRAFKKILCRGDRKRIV
Experimental: (§1) The compounds disclosed herein are agonists of alpha 2B/2C adrenergic receptors. […] This assay is adequate for monitoring the intracellular Ca^2+ mobilization from fluorescent reading to evaluate receptor agonists.
(§2) FLIPR Ca+2 Influx Assay: HEK 293 cells stably expressing the bovine α1A receptor, the rat α1B receptor, the human α2A receptor and the chimeric G protein Gqi5, the human α2C receptor and the chimeric G protein Gqi5 and the mouse α2B receptor and the Gα16 protein were plated in poly-D-lysine coated 384 well plates at 15,000-25,000 cells per well and grown overnight in DMEM supplemented with 10% fetal bovine serum. For FLIPR (fluorometric image plate reader) evaluation, cells were washed 2-4 times with HBSS/HEPES Buffer (1× Hanks Buffered Salt Solution, 20 mM HEPES<pH 7.4) prior to the addition of Fluo-4-AM (4 uM Fluo-4-AM, 0.04% pluronic acid in HBSS/HEPES Buffer), a calcium-sensitive dye. Cells were loaded with Dye for 40 minutes at 30° C., then washed 4-8 times with HBSS/HEPES Buffer to remove excess dye. Cells were preincubated at 37° C. for 3 minutes prior to placement into the FLIPR instrument. The reaction was carried out at 37° C. and was initiated by the addition of the appropriate dilutions of compounds. The transient calcium was captured and the peak height of the calcium curve determined and utilized for calculation of EC50 and efficacy using ActivityBase. Data is stored in the ActivityBase database under the unique identifier “Test Occasion”, which reflects the results of an assay run on a particular date and the individual responsible for the assay. Norepinephrine was the standard full agonist for evaluating alpha1 and alpha2 receptor activity.

[2] = biological target: T2, mouse α2B receptor (Mus musculus, UniProt P30545); experiment: FLIPR Ca+2 influx assay, α2B; conditions: for EC50: HEK 293 cells stably expressing mouse α2B receptor and Gα16 protein; for Relative efficacy FLIPR α2B: relative efficacy compared to standard full agonist norepinephrine, HEK 293, mouse α2B/Gα16
T2 construct: expressed in transfected cells; host or cells: HEK 293
T2 sequence (P30545 1-453): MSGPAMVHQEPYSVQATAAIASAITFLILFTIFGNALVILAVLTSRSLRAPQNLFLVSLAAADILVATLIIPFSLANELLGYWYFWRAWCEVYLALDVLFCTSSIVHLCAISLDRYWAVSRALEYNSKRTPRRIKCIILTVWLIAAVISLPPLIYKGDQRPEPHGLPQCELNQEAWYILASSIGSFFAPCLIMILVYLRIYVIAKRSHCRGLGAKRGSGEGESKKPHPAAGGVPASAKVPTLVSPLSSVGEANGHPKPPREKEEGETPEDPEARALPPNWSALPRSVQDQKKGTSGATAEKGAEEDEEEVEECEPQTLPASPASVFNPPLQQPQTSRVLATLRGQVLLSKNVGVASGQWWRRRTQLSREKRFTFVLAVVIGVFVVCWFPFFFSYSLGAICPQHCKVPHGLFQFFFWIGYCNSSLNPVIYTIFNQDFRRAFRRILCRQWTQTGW
Experimental: as §1, §2

[3] = biological target: T3, human α2C receptor (Homo sapiens, UniProt P18825); experiment: FLIPR Ca+2 influx assay, α2C; conditions: for EC50: HEK 293 cells stably expressing human α2C receptor and chimeric G protein Gqi5; for Relative efficacy FLIPR α2C: relative efficacy compared to standard full agonist norepinephrine, HEK 293, human α2C/Gqi5
T3 construct: expressed in transfected cells; host or cells: HEK 293
T3 sequence (P18825 1-462): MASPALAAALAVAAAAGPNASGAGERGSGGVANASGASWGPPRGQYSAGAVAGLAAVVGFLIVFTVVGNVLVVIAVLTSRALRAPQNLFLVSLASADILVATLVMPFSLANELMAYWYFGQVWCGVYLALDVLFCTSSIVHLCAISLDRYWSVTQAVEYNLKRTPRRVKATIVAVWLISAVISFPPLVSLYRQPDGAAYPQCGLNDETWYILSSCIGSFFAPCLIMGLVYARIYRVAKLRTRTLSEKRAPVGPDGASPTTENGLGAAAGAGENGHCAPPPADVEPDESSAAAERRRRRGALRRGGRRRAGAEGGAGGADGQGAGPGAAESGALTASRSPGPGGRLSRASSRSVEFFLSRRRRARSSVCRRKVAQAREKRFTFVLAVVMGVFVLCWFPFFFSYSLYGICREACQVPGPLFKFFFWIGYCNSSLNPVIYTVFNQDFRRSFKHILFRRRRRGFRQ
Experimental: as §1, §2

[4] = biological target: T4, bovine α1A receptor (Bos taurus, UniProt P18130); experiment: FLIPR Ca+2 influx assay, α1A; conditions: for EC50: HEK 293 cells stably expressing bovine α1A receptor; for Relative efficacy FLIPR α1A: relative efficacy compared to standard full agonist norepinephrine, HEK 293, bovine α1A
T4 construct: expressed in transfected cells; host or cells: HEK 293
T4 sequence (P18130 1-466): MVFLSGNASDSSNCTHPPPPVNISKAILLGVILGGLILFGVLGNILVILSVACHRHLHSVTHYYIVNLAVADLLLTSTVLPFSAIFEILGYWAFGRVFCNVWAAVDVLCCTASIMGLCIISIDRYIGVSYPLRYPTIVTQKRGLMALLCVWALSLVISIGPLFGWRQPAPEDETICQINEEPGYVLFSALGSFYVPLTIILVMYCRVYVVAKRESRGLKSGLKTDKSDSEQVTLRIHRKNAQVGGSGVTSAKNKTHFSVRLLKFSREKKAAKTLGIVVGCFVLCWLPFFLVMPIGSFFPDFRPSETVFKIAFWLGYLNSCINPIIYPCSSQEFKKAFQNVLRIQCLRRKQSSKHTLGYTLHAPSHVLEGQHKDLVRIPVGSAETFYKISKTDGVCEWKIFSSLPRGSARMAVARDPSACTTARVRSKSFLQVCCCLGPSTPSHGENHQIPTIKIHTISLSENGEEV
Experimental: as §1, §2

[5] = biological target: T5, rat α1B receptor (Rattus norvegicus, UniProt P15823); experiment: FLIPR Ca+2 influx assay, α1B; conditions: for EC50: HEK 293 cells stably expressing rat α1B receptor; for Relative efficacy FLIPR α1B: relative efficacy compared to standard full agonist norepinephrine, HEK 293, rat α1B
T5 construct: expressed in transfected cells; host or cells: HEK 293
T5 sequence (P15823 1-515): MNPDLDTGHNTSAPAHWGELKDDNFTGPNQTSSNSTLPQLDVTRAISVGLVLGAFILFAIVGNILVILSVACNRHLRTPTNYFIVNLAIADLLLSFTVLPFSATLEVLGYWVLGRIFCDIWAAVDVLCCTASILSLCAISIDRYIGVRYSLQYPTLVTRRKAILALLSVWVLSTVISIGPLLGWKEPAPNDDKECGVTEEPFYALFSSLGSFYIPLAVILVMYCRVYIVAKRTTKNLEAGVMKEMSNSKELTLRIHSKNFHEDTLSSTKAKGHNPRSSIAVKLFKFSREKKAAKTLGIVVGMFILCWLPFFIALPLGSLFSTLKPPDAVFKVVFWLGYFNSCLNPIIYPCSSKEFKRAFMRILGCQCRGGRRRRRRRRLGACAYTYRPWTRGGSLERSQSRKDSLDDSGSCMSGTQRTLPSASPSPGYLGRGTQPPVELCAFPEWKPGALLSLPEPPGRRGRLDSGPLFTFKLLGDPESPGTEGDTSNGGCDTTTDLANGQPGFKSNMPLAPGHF
Experimental: as §1, §2

Compound | EC50 [1] | Relative efficacy FLIPR α2A [1] | EC50 [2] | Relative efficacy FLIPR α2B [2] | EC50 [3] | Relative efficacy FLIPR α2C [3] | EC50 [4] | Relative efficacy FLIPR α1A [4] | EC50 [5] | Relative efficacy FLIPR α1B [5]
CCCN(Cc1ccncc1)C1CCc2cccc(OC)c2C1 (centres unmarked) | 1.85 µM | 0.22 | 36 nM | 1.0 | 2.15 µM | 0.69 | > 10 µM | 0 | > 10 µM | 0
CCCN(Cc1ccncc1)[C@@H]1CCc2cccc(O)c2C1 | > 10 µM | 0 | 4 nM | 0.8 | > 10 µM | 0 | > 10 µM | 0 | > 10 µM | 0
CCN(Cc1ccncc1)C1CCc2cccc(OC)c2C1 (centres unmarked) | 0.203 µM | 0.74 | 78 nM | 0.91 | 0.253 µM | 0.72 | > 10 µM | 0 | > 10 µM | 0
CCN(Cc1ccncc1)C1CCc2cccc(O)c2C1 (centres unmarked) | 5.5 µM | 0.16 | 185 nM | 1.08 | 6.7 µM | 0.17 | – | ND (0.1) | – | ND (0.15)
CCN(Cc1cccnc1)C1CCc2cccc(OC)c2C1 (centres unmarked) | 0.442 µM | 0.51 | 614 nM | 0.26 | 0.652 µM | 0.52 | > 10 µM | 0 | > 10 µM | 0
CCN(Cc1cccnc1)C1CCc2cccc(O)c2C1 (centres unmarked) | 4.5 µM | 0.35 | 873 nM | 0.89 | – | ND (0.43) | 4 µM | 0.29 | – | ND (0.36)
CCN(Cc1ccccn1)C1CCc2cccc(OC)c2C1 (centres unmarked) | > 10 µM | 0 | 647 nM | 0.14 | > 10 µM | 0 | > 10 µM | 0 | > 10 µM | 0
CCN(Cc1ccccn1)C1CCc2cccc(O)c2C1 (centres unmarked) | > 10 µM | 0 | 733 nM | 0.28 | > 10 µM | 0 | > 10 µM | 0 | > 10 µM | 0
CCCN(Cc1cccnc1)C1CCc2cccc(OC)c2C1 (centres unmarked) | > 1 µM | 0 | 820 nM | 0.47 | – | ND (0.13) | > 10 µM | 0 | > 10 µM | 0
CCCN(Cc1ccccn1)C1CCc2cccc(OC)c2C1 (centres unmarked) | > 10 µM | 0 | 363 nM | 0.63 | > 10 µM | 0 | > 10 µM | 0 | > 10 µM | 0
